Source: PMC6934184, “Selective DNA-PKcs inhibition extends the therapeutic index of localized radiotherapy and chemotherapy” (The Journal of Clinical Investigation, 2019)

Molecular target: T1, MAPK8 (JNK1) (Homo sapiens, UniProt P45983)
T1 construct: purchased Thermo Fisher Scientific (Life Technologies) SelectScreen
Assay: SelectScreen Z'LYTE
Type: biochemical
Settings: ATP 100 µM
In short: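 Percent values come from Thermo SelectScreen profiling of NU5455, combining activity and binding assays. CSF1R was run in Z'LYTE format at Km app ATP, and CAMK1 in Adapta format with ATP listed at 10.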

T1 sequence (P45983 whole entry): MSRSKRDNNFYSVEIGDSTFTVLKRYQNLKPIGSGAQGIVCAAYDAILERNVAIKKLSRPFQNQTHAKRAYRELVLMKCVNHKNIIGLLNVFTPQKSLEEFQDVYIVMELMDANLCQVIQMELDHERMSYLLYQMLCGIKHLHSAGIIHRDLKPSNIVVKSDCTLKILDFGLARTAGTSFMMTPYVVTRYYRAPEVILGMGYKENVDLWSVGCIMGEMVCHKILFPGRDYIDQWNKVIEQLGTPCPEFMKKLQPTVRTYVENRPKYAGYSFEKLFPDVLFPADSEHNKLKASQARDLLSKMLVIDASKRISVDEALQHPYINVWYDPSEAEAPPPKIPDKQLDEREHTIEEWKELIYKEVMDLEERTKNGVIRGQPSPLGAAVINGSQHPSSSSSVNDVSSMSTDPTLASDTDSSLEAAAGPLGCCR

`CN(C(=O)CN1CCOCC1)c1ccc2sc3c(-c4cccc5c(=O)cc(N6CC7CCC(C6)O7)oc45)cccc3c2c1` [NU5455] was tested. Which inhibition at 1 µM did it give?
Its inhibition at 1 µM is 12%.
